Results taken from US6953577B2, “Human methionine aminopeptidase type 3” (Pharmacia Corporation, priority 1999, dated 2005).

How the values were obtained:
[1] = biological target: T1, recombinant human MetAP-3 (Homo sapiens, UniProt Q6UB28); test: Methionine aminopeptidase activity assay (methionine release from tripeptide, coupled L-amino acid oxidase/Amplex Red); type: biochemical; conditions: for Cleaved / Vmax: tripeptide as substrate of recombinant human MetAP-3
T1 construct: The coding region of hMetAP-3 was also cloned into the EcoRI/HindIII sites of the pET43a vector and expressed as a fusion protein; NusA (N, cleaved yes); 6xHis (N, cleaved yes); made in house; host or cells: E. coli Tuner (DE3)plysS, pET43a
T1 sequence (Q6UB28 20-335): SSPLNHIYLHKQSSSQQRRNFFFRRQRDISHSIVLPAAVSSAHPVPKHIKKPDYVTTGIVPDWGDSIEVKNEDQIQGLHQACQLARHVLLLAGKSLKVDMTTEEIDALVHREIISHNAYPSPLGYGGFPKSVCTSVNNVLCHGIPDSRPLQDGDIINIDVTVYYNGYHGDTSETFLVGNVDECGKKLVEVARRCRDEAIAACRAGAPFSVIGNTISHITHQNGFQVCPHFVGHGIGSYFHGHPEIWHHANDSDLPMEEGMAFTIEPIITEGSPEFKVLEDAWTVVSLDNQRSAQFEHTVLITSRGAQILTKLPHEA
Protocol: (§1) Hydrogen peroxide, produced by the L-amino acid oxidase reaction, was measured by monitoring the formation of resorufin from Amplex Red in a reaction catalyzed by of horseradish peroxidase. […] The reaction was performed in a 96-well plate format at ambient temperature using the following assay buffer: 20 mM HEPES-Na pH 7.5, 100 mM NaCl, 0.1 mM CoCl2 containing 100 μM Amplex Red, 0.15 U/ml L-amino acid oxidase, 0.5 U/ml horseradish peroxidase.
(§2) The ability of fumagillin to inhibit each of the recombinant human MetAPs was determined by adding 0.6 nM-500 μM fumagillin at the start of the reaction. The IC50 values were determined under conditions in which enzyme concentration and reaction time were linear.

[2] = tested on: endothelial cell proliferation; conditions: cited from earlier work
MetAP-2 [3] = biological target: T2, MetAP-2 (Homo sapiens, UniProt P50579); conditions: cited from earlier work
Target sequence in this assay (P50579 whole entry, species assumed): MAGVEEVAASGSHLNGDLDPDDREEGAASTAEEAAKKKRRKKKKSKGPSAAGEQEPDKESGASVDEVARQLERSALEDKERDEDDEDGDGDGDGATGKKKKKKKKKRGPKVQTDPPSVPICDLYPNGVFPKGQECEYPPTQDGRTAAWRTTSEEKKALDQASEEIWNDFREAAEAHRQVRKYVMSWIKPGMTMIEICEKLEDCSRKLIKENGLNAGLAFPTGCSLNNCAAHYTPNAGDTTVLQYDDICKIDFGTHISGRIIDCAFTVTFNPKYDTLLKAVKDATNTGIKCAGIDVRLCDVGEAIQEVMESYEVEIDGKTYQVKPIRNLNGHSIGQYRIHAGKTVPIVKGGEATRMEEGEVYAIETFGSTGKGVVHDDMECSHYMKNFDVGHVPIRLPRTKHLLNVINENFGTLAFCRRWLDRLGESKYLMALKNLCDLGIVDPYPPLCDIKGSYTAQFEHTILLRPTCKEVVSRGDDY

type-1 enzyme (MetAP-1) = type-1 enzyme (MetAP-1) (Homo sapiens, UniProt P53582); conditions: cited from earlier work
[4] = in vivo, cited from earlier work
MetAP-2 [5] = biological target: T2, MetAP-2; test: Methionine aminopeptidase activity assay (methionine release from tripeptide, coupled L-amino acid oxidase/Amplex Red)
Protocol: as §1, §2
Target sequence in this assay (P50579 whole entry): as the sequence (P50579 whole entry, species assumed) above

[6] = biological target: recombinant human MetAP-1 (Homo sapiens, UniProt P53582); test: as above
Protocol: as §1, §2

Cleaved [1]	Vmax [1] [Abs × 1000/min]	Compound	Binding and inhibition of MetAP-2 (in words) (MetAP-2 [3])	Inhibition of type-1 enzyme (in words) (type-1 enzyme (MetAP-1))	further results
cleaved and Yes	134	MGG: synthesized tripeptide evaluated as substrate for MetAP-3	–	–	Activity with MGG relative to MAS as substrate [1]: twice as high
No	0.7	GGG: synthesized tripeptide evaluated as substrate for MetAP-3	–	–	–
–	–	CO[C@@H]1[C@H](OC(=O)NC(=O)CCl)CC[C@]2(CO2)[C@H]1[C@@]1(C)O[C@@H]1CC=C(C)C [TNP-470]	irreversibly bind and potently inhibit	but not the type-1 enzyme	Potency relative to fumagillin [2]: 50 fold; Oral availability (in words) ([4]; po): lack of oral availability; Toxicity (in words) [4]: dose-limiting neurotoxicity
–	–	CO[C@@H]1[C@H](OC(=O)/C=C/C=C/C=C/C=C/C(=O)O)CC[C@]2(CO2)[C@H]1[C@@]1(C)O[C@@H]1CC=C(C)C [Fumagillin, fumagillin]	irreversibly bind and potently inhibit	but not the type-1 enzyme	IC50 (MetAP-2 [5]): 0.005 µM; IC50 [6]: 33 µM; Inhibition of MetAP-3 by fumagillin (in words) [1]: not inhibited by fumagillin; IC50 ([1]; read-out: Fumagillin IC50): > 500 µM; Inhibition of endothelial cell proliferation (in words) [2]: potent inhibitor of endothelial cell proliferation
cannot cleave and No	1.1	MEG: synthesized tripeptide evaluated as substrate for MetAP-3	–	–	–
–	–	CO[C@@H]1C(=O)CC[C@]2(CO2)[C@@]1(O)[C@@]1(C)O[C@@H]1CC=C(C)C [ovalicin]	–	but not the type-1 enzyme	–
